Assay results reported in PMC3814572, “Identification of Novel Compounds Inhibiting Chikungunya Virus-Induced Cell Death by High Throughput Screening of a Kinase Inhibitor Library” (PLoS Neglected Tropical Diseases, 2013).
Like-named read-outs stand apart in the source and are kept apart here.

Columns and labels:
HuH-7 cells [1] = conditions: human
in vitro = conditions: human
CHIKV-118-GFP [2] = test: Resazurin reduction assay, dose-response of inhibition of CHIKV-associated cell death in HuH-7; conditions: for EC50: Chikungunya virus, Huh-7, 72 h; for SI (CC50/EC50): minimum SI based on the highest concentration of compound tested
CHIKV-118-GFP [3] = test: Image-based high-content assay of CHIKV-118-GFP infectivity in HuH-7; assay type: cell-based, Chikungunya virus; conditions: for percentage of infected cells / inhibition at 20 µM / inhibition at 50 µM: 24 hrs; for observed apoptotic blebs associated with CHIKV infection: 24 hpi; for inhibition at 20 µM / inhibition at 50 µM: Chikungunya virus, read-out: inhibition of CHIKV-118-GFP infection
[4] = Resazurin reduction assay, toxicity in MOCK-infected (non-infected) HuH-7; conditions: human
CHIKV-118-GFP [5] = test: Virus yield reduction assay (plaque assay of culture medium); conditions: 24 hrs, culture supernatant of HuH-7
CHIKV-118-GFP [6] = test: Microneutralization assay (protection against CHIKV-induced CPE); conditions: 50 pfu CHIKV-118-GFP, 72 hrs, HuH-7
DENV2 (BR DEN2 01-01) = conditions: 10 µM, Huh-7.5, 72 hrs; cited from earlier work
Huh-7.5 cells = conditions: 10 µM, Huh-7.5, 72 hrs; cited from earlier work
HuH-7 cells [7] = test: Cell number by DAPI-stained nuclei imaging in HuH-7; conditions: 50 µM
HuH-7 cells [8] = test: Resazurin reduction assay, toxicity in MOCK-infected (non-infected) HuH-7; conditions: HuH-7
[9] = read-out: EC50 (concentration showing 50% inhibition relative to the maximum inhibition achieved)

In the case of CO/C1=C\C(C)=C\[C@@H](C)[C@@H](O)[C@@H](C)C/C(C)=C/C=C/[C@H](OC)[C@@H]([C@@H](C)[C@@H](O)[C@H](C)[C@@]2(O)C[C@@H](O)[C@H](C)[C@@H](C(C)C)O2)OC1=O [BAF, Bafilomycin A1], the CC50 (HuH-7 cells [1]) is reported as 0.237 µM, the CC50 (in vitro) is reported as 0.09 µM and the EC50 (CHIKV-118-GFP [2]) is reported as 0.056 µM.

For COc1ccc(-c2ccc(C(=O)NC(C)C)c3occc23)c(C)c1 [CND0335], the “percentage of infected cells” value (CHIKV-118-GFP [3]; 20 µM) was 90.9%, the CC50 at 72 h [4] was > 50 µM and the EC50 (CHIKV-118-GFP [2]; [9]) was 3.3 µM. The “SI (CC50/EC50)” value (CHIKV-118-GFP [2]) was >15.

For COc1ccc(-c2ccc(C(=O)Nc3ccc(C(C)C)cc3)c3occc23)c(C)c1 [CND0364], the “percentage of infected cells” value (CHIKV-118-GFP [3]; 20 µM) was 80.3%, the “observed apoptotic blebs associated with CHIKV infection” value (“observed apoptotic blebs associated” for short) (CHIKV-118-GFP [3]) was “significantly lower” and the inhibition at 20 µM (CHIKV-118-GFP [3]; 20 µM) was 19.7%. The “log titer reduction vs DMSO vehicle control” value (“log titer reduction” below) (CHIKV-118-GFP [5]; 20 µM) was 1.69 log, the “lowest concentration that inhibited CHIKV-induced CPE (clearing of cell monolayer)” value (CHIKV-118-GFP [6]) was 12.5 µM and the CC50 at 72 h [4] was > 50 µM. For the same compound, the EC50 (CHIKV-118-GFP [2]; [9]) was 6.2 µM and the “SI (CC50/EC50)” value (CHIKV-118-GFP [2]) was >8.1.

In the case of COc1ccc(-c2coc3c(C(=O)Nc4cccnc4)cccc23)c(C)c1 [CND0366], the “percentage of infected cells” value (CHIKV-118-GFP [3]; 20 µM) is reported as 94.4%, the CC50 at 72 h [4] is reported as > 50 µM and the EC50 (CHIKV-118-GFP [2]; [9]) is reported as 7.1 µM. The “SI (CC50/EC50)” value (CHIKV-118-GFP [2]) was >7.0.

In the case of COc1ccc(-c2coc3c(C(=O)NC(C)C)cccc23)c(C)c1 [CND0415], the “percentage of infected cells” value (CHIKV-118-GFP [3]; 20 µM) is reported as 96.4%, the CC50 at 72 h [4] is reported as > 50 µM and the EC50 (CHIKV-118-GFP [2]; [9]) is reported as 6.2 µM. For the same compound, the “SI (CC50/EC50)” value (CHIKV-118-GFP [2]) was >8.1.

With COc1cccc(Nc2cc3c(cn2)cc(-c2cccc(C(F)(F)F)c2)n3C)c1 [CND0545] the “percentage of infected cells” value (CHIKV-118-GFP [3]; 20 µM) was 71.7%, the “observed apoptotic blebs associated” value (CHIKV-118-GFP [3]) was “significantly lower” and the inhibition at 20 µM (CHIKV-118-GFP [3]; 20 µM) was 28.3%. The “log titer reduction” value (CHIKV-118-GFP [5]; 20 µM) was 2.01 log, the “lowest concentration that inhibited CHIKV-induced CPE (clearing of cell monolayer)” value (CHIKV-118-GFP [6]) was 25 µM and the CC50 at 72 h [4] was > 50 µM. For the same compound, the EC50 (CHIKV-118-GFP [2]; [9]) was 5.6 µM and the “SI (CC50/EC50)” value (CHIKV-118-GFP [2]) was >8.9.

For CC(C)c1ccc(NC(=O)c2csc(C(O)C(C)C)n2)cc1 (stereo not drawn) [CND3514], the “percentage of infected cells” value (CHIKV-118-GFP [3]; 20 µM) is listed as 92.2%, the “inhibition against DENV2” value (DENV2 (BR DEN2 01-01)) is listed as 67.87% and the “toxicity in DENV2 screening (cell number)” value (Huh-7.5 cells) is listed as 39.37%. For the same compound, the CC50 at 72 h [4] was > 50 µM, the EC50 (CHIKV-118-GFP [2]; [9]) was 2.2 µM and the “SI (CC50/EC50)” value (CHIKV-118-GFP [2]) was >22.7.

In the case of CN(C)CCCN1c2ccccc2Sc2ccc(Cl)cc21 [CPZ, Chlorpromazine], the “reduction of cell number” value (HuH-7 cells [7]; 24 hrs) is reported as 86%, the “reduction of cell number” value (HuH-7 cells [7]; 48 hrs) is reported as > 99.9% and the “reduction of cell number” value (HuH-7 cells [7]; 72 hrs) is reported as > 99.9%. For the same compound, the “reduction of cell number” value (HuH-7 cells [7]; 96 hrs) was > 99.9% and the “fluorescence readout after resazurin treatment” value (HuH-7 cells [8]; 50 µM, 72 hpi) was 240,842±14,730 RFU.

In the case of CCN(CC)CCCC(C)Nc1ccnc2cc(Cl)ccc12 (stereo not drawn) [CQ, Chloroquine, reference compound], the “percentage of infected cells” value (CHIKV-118-GFP [3]; 50 µM) is reported as 24.4%, the “observed apoptotic blebs associated” value (CHIKV-118-GFP [3]) is reported as “still prominent” and the inhibition at 50 µM (CHIKV-118-GFP [3]; 50 µM) is reported as 75.6%. For the same compound, the “log titer reduction” value (CHIKV-118-GFP [5]; 50 µM) was 1.88 log, the CC50 at 72 h [4] was 90 µM and the EC50 (CHIKV-118-GFP [2]) was 29 µM.

With COc1c(C)c2c(c(O)c1C/C=C(\C)CCC(=O)O)C(=O)OC2 [MPA, Mycophenolic acid, reference compound] the “percentage of infected cells” value (CHIKV-118-GFP [3]; 50 µM) was 7.34%, the “observed apoptotic blebs associated” value (CHIKV-118-GFP [3]) was “significantly lower” and the inhibition at 50 µM (CHIKV-118-GFP [3]; 50 µM) was > 92%. The CC50 at 72 h [4] was > 100 µM, the “cytotoxicity at the highest concentration tested” value (HuH-7 cells [8]; 100 µM) was “no observable cytotoxicity” and the EC50 (CHIKV-118-GFP [2]) was 1.6 µM.
